Assay [1] concerns the target T1, Ras farnesyl transferase (Rattus norvegicus, UniProt Q02293+Q04631).
T1 construct: endogenous in cells; host or cells: Rat2 fibroblasts transformed with H-Ras or with an H-Ras/K-Ras C-terminus fusion
The assay is described as follows: In vivo (cellular) inhibitory activity for Ras farnesyl transferase, Rat2 cell line transformed with fused protein of H-Ras substituted with polybasic lysine domain at C-terminus of K-Ras. In kind it is cell-based. The essentials:
(§1)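 Transformed Rat2 fibroblasts (H-Ras or H-Ras/K-Ras polybasic-tail fusion) treated with compound in 1% DMSO; after 4 h labelled with [35S]methionine 150 μCi/ml for 20 h. Lysates immunoprecipitated with anti-Ras Y13-259, resolved by 13.5% SDS-PAGE and autoradiography; CIC50 = concentration inhibiting 50% of Ras farnesylation from band intensities.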

Assay [2] has as its target T2, Ras farnesyl transferase (Homo sapiens, UniProt P49354+P49356).
T2 construct: made in house
The assay can be described thus: In vitro inhibitory activity for Ras farnesyl transferase, K-Ras substrate. It is filed as biochemical.

In assay [3] the target is T1, Ras farnesyl transferase. The assay is described as follows: In vivo (cellular) inhibitory activity for Ras farnesyl transferase, Rat2 cell line which expresses C-Harvey-Ras protein. It is filed as cell-based. An outline of the steps: as §1
Assay [4] concerns the target T2, Ras farnesyl transferase. The assay can be described thus: In vitro inhibitory activity for Ras farnesyl transferase, H-Ras substrate. In kind it is biochemical.
Where [5] appears, read: Rat2 cell line transformed with H-Ras fused with polybasic lysine domain of K-Ras C-terminus, concentration inhibiting 50% of farnesyl bonding, read-out: K-Ras CIC50.
Where [6] appears, read: in vitro farnesyl transferase assay, K-Ras, read-out: K-Ras IC50.
Setting [7] is: Rat2 cell line expressing C-Harvey-Ras, concentration inhibiting 50% of farnesyl bonding of Ras protein, read-out: H-Ras CIC50.
Setting [8] is: recombinant farnesyl transferase 4.5 nM, Ras substrate protein 1.5 μM, tritium-farnesylpyrophosphate 0.15 μM, 30 minutes at 37° C., read-out: H-Ras IC50.

pIC50: −log10 of the molar value.

With `O=C(NCc1ccccc1)c1cn(Cc2c[nH]cn2)cc1-c1cccc2ccccc12` [Compound 83], the pIC50 in assay [1] (setting [5]) is 4.00 to 5.00; in assay [2] (setting [6]), 4.73; in assay [3] (setting [7]), 4.30 to 6.00; in assay [4] (setting [8]) it was 6.59.
For `O=C(c1cn(Cc2c[nH]cn2)cc1-c1cccc2ccccc12)N1CCCCC1` [Compound 84] the same measures were 4.00 to 5.00, 5.74, 4.30 to 6.00 and 6.14.
Turning to `O=C(c1cn(Cc2c[nH]cn2)cc1-c1cccc2ccccc12)N1CCOCC1` [Compound 85], the pIC50 in assay [1] (setting [5]) is below 4.30; in assay [2] (setting [6]), 5.00 to 7.00; in assay [3] (setting [7]), 5.40; in assay [4] (setting [8]) it was 7.52.
For `O=C(c1cn(Cc2c[nH]cn2)cc1-c1cccc2ccccc12)N1CCSCC1` [Compound 86] the same measures were below 4.30, 5.00 to 7.00, 5.70 and 7.52.
For `O=C(c1cn(Cc2c[nH]cn2)cc1-c1cccc2ccccc12)N1CCS(=O)(=O)CC1` [Compound 87] the same measures were 4.00 to 5.00, 5.00 to 7.00, 4.30 to 6.00 and 7.22.
Consider `O=C(c1cn(Cc2c[nH]cn2)cc1-c1cccc2ccccc12)N1CCNCC1` [Compound 88], for which the pIC50 in assay [1] (setting [5]) was 4.00 to 5.00; in assay [2] (setting [6]), 5.00 to 7.00; in assay [3] (setting [7]), 4.30 to 6.00; in assay [4] (setting [8]), 6.22.
On to `O=C(c1cn(Cc2c[nH]cn2)cc1-c1cccc2ccccc12)N1CCSC1` [Compound 90], for which the pIC50 in assay [1] (setting [5]) is 4.00 to 5.00; in assay [2] (setting [6]), 5.00 to 7.00; in assay [3] (setting [7]), 4.30 to 6.00; in assay [4] (setting [8]), 7.37.
For `O=C(c1cn(Cc2c[nH]cn2)cc1-c1cccc2ccccc12)N1CCC(O)CC1` [Compound 91] the same measures were 4.00 to 5.00, 5.00 to 7.00, 4.30 to 6.00 and 5.67.
Take `O=C1CCN(C(=O)c2cn(Cc3c[nH]cn3)cc2-c2cccc3ccccc23)CC1` [Compound 92]: the pIC50 was 4.00 to 5.00 in assay [1], 5.00 to 7.00 in assay [2], 4.30 to 6.00 in assay [3] and 7.15 in assay [4].
As to `O=C(NCCO)c1cn(Cc2c[nH]cn2)cc1-c1cccc2ccccc12` [Compound 93], the pIC50 was 4.00 to 5.00 in assay [1] (setting [5]), 5.00 to 7.00 in assay [2] (setting [6]), 4.30 to 6.00 in assay [3] (setting [7]) and 6.49 in assay [4] (setting [8]).
As to `CN(CCO)C(=O)c1cn(Cc2c[nH]cn2)cc1-c1cccc2ccccc12` [Compound 94], the pIC50 in assay [1] (setting [5]) was 4.00 to 5.00; in assay [2] (setting [6]) it was 5.00 to 7.00; in assay [3] (setting [7]) it was 4.30 to 6.00; in assay [4] (setting [8]), 6.70.
For `COCCN(C)C(=O)c1cn(Cc2c[nH]cn2)cc1-c1cccc2ccccc12` [Compound 95] the same measures were 4.30 to 5.00, 6.00 to 7.00, 7.00 to 8.00 and 9.15.
On to `O=C(c1cn(Cc2c[nH]cn2)cc1-c1ccnc2ccccc12)N1CCOCC1` [Compound 96], for which the pIC50 was 4.00 to 5.00 in assay [1] (setting [5]), 5.00 to 7.00 in assay [2] (setting [6]), 4.30 to 6.00 in assay [3] (setting [7]) and 6.64 in assay [4] (setting [8]).
For `O=C(c1cn(Cc2c[nH]cn2)cc1-c1ccc2c3c(cccc13)CC2)N1CCOCC1` [Compound 97] the same measures were 4.00 to 5.00, 4.00 to 5.00, 4.00 to 5.00 and 4.92.
For `N#Cc1ccc(CNC(=O)c2cn(Cc3c[nH]cn3)cc2-c2cccc3ccccc23)cc1` [Compound 98] the same measures were 4.00 to 5.00, 5.00 to 7.00, 4.30 to 6.00 and 6.05.

(Values after patent US6472526B1, “Imidazole derivatives having an inhibitory activity for farnesyl transferase and process for preparation thereof” (LG Chemical Ltd., priority 1997, dated 2002).)
